Assay results reported in patent publication US8846904B2, “Water-soluble porphyrin and process for production thereof” (University of Miyazaki, priority 2009, dated 2014).
Read-outs that look alike come from different tables or passages of the source.

What was measured:
[1] = Solubility in dioxane (Co), absorption spectrum; assay type: physicochemical
Method: (§1) 10 mg of the obtained PTPP derivative was dispersed in 0.50 mL of water and allowed to stand for 3 days to prepare a saturated aqueous solution. The supernatant of the aqueous solution was collected and diluted with methanol. Thereafter, the absorption spectrum was measured and the solubility in water (Cw) was calculated using the molar absorption coefficient of the PTPP derivative in methanol. In a similar manner to the above, the solubility in dioxane (Co) was also calculated.

[2] = Solubility in water (Cw), saturated aqueous solution, absorption spectrum; assay type: physicochemical
Method: as §1

[3] = Partition from aqueous phase to water-immiscible organic solvent (octanol or chloroform); assay type: physicochemical; details: octanol or chloroform added to the aqueous solution and stirred; derivative promptly moved to the organic phase
Method: A water-immiscible organic solvent, such as octanol or chloroform, was added to the aqueous solution of the PTPP derivative (Cw=17.3 mM, Co=0.245 mM) and stirred. This caused the PTPP derivative dissolved in the aqueous phase to promptly move to the organic phase.

[4] = tested on: yeast (Saccharomyces cerevisiae); experiment: Biocompatibility: concentration of PTPP derivative adsorbed on yeast cells (Cad), microscope absorption spectrophotometry; assay type: cell-based; details: 10 μM of PTPP derivative added to a yeast solution (1.0×10^4 cell/mL); Nd = below the detection limit
Method: Subsequently, the biocompatibility of this PTPP derivative was assessed in the following manner. An aqueous solution of this PTPP derivative (0.5 mL, 50 μm) was added to the cell suspension (1.0 mL; ca. 2.5×10^4 cell/mL) of yeast, and then an aqueous solution of agar (1 wt %; 1.0 mL) was added. A portion of the prepared aqueous solution containing the PTPP derivative (10 μm), yeast (Saccharomyces cerevisiae; ca. 1.0×10^4 cell/mL) and agar (0.4 wt %) was placed on a space (1 cm×1 cm) surrounded by a silicone spacer (thickness 50 μm) put on a glass slide, covered with a cover glass. The glass slide was set on the stage of an optical microscope. Thereafter, appropriate bacterial cells were positioned in the center of the field of view, and the Q-band absorption spectrum of the PTPP derivative near 560 nm was measured. Then, the concentration (Cad) of the PTPP derivative adsorbed on the bacterial cells was calculated from absorption spectrophotometry based on the Lambert-Beer law.

[5] = Quantum yield of 1O2 production, near infrared emission at 1,270 nm; assay type: physicochemical; details: aqueous PTPP derivative solution (20 μM), laser 558 nm, relative to methylene blue
From the text: When the photosensitizer “Photofrin” that has been practically used in PDT treatment is used, the quantum yield of ^1O2 is 0.53 (J. Photochem. Photobiol. B, 92 (2008), 59-65). In contrast, when the PTPP derivatives prepared in Examples 2, 3, and 4 were used, the quantum yields of ^1O2 were 0.62, 0.69, and 0.73, respectively. This explains that the water-soluble porphyrins of the present invention have high photoexcitation efficiency and can thus be suitably used for PDT. The quantum yields of the ^1O2 production were determined by directly measuring the near infrared emission near 1,270 nm obtained by deactivation of the produced ^1O2.
Specifically, an aqueous PTPP derivative solution (20 μM) was irradiated with a laser beam of 558 nm to excite the PTPP derivative, and the emission spectrum of the produced ^1O2 was measured. The quantum yield of the ^1O2 production was calculated by comparing the emission intensity at 1,270 nm obtained with respect to the aqueous PTPP derivative solution with the emission intensity at 1,270 nm obtained in the same manner as above with respect to methylene blue (quantum yield: 0.52).

[6] = cited from earlier work
[7] = saturated aqueous solution, allowed to stand for 3 days

COCCOCCOCCO[P-]123(OCCOCCOCCOC)n4c5ccc4C(c4ccccc4)=C4C=CC(=[N+]41)C(c1ccccc1)=c1ccc(n12)=C(c1ccccc1)C1=[N+]3C(=C5c2ccccc2)C=C1.Cl [Example 1]
Solubility Co (solubility in dioxane) ([1]; solvent dioxane): 245 µM | Solubility Cw (solubility in water) [2, 7]: 17300 µM | partition to the organic phase [3]: high partition coefficient to the organic phase

COCCOCCO[P-]123(OCCOCCOC)n4c5ccc4C(c4ccccc4)=C4C=CC(=[N+]41)C(c1ccccc1)=c1ccc(n12)=C(c1ccccc1)C1=[N+]3C(=C5c2ccccc2)C=C1.Cl [Example 2]
Solubility Co (solubility in dioxane) ([1]; solvent dioxane): 140 µM | Solubility Cw (solubility in water) [2, 7]: 13900 µM | Cad (concentration of PTPP derivative adsorbed on bacterial cell) [4]: 17.8 mM | quantum yield of 1O2 [5]: 0.62

CCOCCOCCO[P-]123(OCCOCCOCC)n4c5ccc4C(c4ccccc4)=C4C=CC(=[N+]41)C(c1ccccc1)=c1ccc(n12)=C(c1ccccc1)C1=[N+]3C(=C5c2ccccc2)C=C1.Cl [Example 3]
Solubility Co (solubility in dioxane) ([1]; solvent dioxane): 169 µM | Solubility Cw (solubility in water) [2, 7]: 13000 µM | Cad (concentration of PTPP derivative adsorbed on bacterial cell) [4]: 27.5 mM | quantum yield of 1O2 [5]: 0.69

CCCCOCCOCCO[P-]123(OCCOCCOCCCC)n4c5ccc4C(c4ccccc4)=C4C=CC(=[N+]41)C(c1ccccc1)=c1ccc(n12)=C(c1ccccc1)C1=[N+]3C(=C5c2ccccc2)C=C1.Cl [Example 4]
Solubility Co (solubility in dioxane) ([1]; solvent dioxane): 293 µM | Solubility Cw (solubility in water) [2, 7]: 5380 µM | Cad (concentration of PTPP derivative adsorbed on bacterial cell) [4]: 74.6 mM | quantum yield of 1O2 [5]: 0.73

CCCCCCOCCOCCO[P-]123(OCCOCCOCCCCCC)n4c5ccc4C(c4ccccc4)=C4C=CC(=[N+]41)C(c1ccccc1)=c1ccc(n12)=C(c1ccccc1)C1=[N+]3C(=C5c2ccccc2)C=C1.Cl [Example 5]
Solubility Co (solubility in dioxane) ([1]; solvent dioxane): 244 µM | Solubility Cw (solubility in water) [2, 7]: 2070 µM | Cad (concentration of PTPP derivative adsorbed on bacterial cell) [4]: 146 mM

CCCCCCOCCO[P-]123(OCCOCCCCCC)n4c5ccc4C(c4ccccc4)=C4C=CC(=[N+]41)C(c1ccccc1)=c1ccc(n12)=C(c1ccccc1)C1=[N+]3C(=C5c2ccccc2)C=C1.Cl [Example 6]
Solubility Co (solubility in dioxane) [1]: 242 µM | Solubility Cw (solubility in water) [2]: 1110 µM | Cad (concentration of PTPP derivative adsorbed on bacterial cell) [4]: 142 mM

CCCCCCCCCCCCOCCOCCOCCOCCOCCOCCOCCOCCOCCO[P-]123(OCCOCCOCCOCCOCCOCCOCCOCCOCCOCCCCCCCCCCCC)n4c5ccc4C(c4ccccc4)=C4C=CC(=[N+]41)C(c1ccccc1)=c1ccc(n12)=C(c1ccccc1)C1=[N+]3C(=C5c2ccccc2)C=C1.Cl [Example 7]
Solubility Co (solubility in dioxane) ([1]; solvent dioxane): ≧25 mM | Solubility Cw (solubility in water) [2, 7]: 14460 µM

CCCCCCCCCCCCCCCCCCOCCOCCOCCOCCO[P-]123(OCCOCCOCCOCCOCCCCCCCCCCCCCCCCCC)n4c5ccc4C(c4ccccc4)=C4C=CC(=[N+]41)C(c1ccccc1)=c1ccc(n12)=C(c1ccccc1)C1=[N+]3C(=C5c2ccccc2)C=C1.Cl [Example 8]
Solubility Co (solubility in dioxane) ([1]; solvent dioxane): ≧25 mM | Solubility Cw (solubility in water) [2, 7]: 7960 µM

CN(C)c1ccc2nc3ccc(=[N+](C)C)cc-3sc2c1 [methylene blue]
quantum yield of 1O2 ([6]; methylene blue reference standard value): 0.52

Photofrin
quantum yield of 1O2 ([6]; Photofrin, from J. Photochem. Photobiol. B, 92 (2008), 59-65): 0.53
